Source: patent US11649255B2, “Indazoles as hematopoietic progenitor kinase 1 (HPK1) inhibitors and methods using same” (1st Biotherapeutics, Inc., priority 2020, dated 2023)

Target: recombinant human HPK1 (Homo sapiens (Human), UniProt Q92918)
Assay: HPK1 kinase assay (ADP-Glo)
Format: biochemical
Conditions: 25 μM ATP, MBP substrate
Method in brief: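 Activity was read as ADP formed, detected by ADP-Glo luminescence after the reaction of 5 ng recombinant human HPK1 with MBP and ATP (stocks 0.5 μg/μl and 25 μM) for 40 min at 30 °C. Buffer was Tris pH 7.5 with MgCl2, BSA and DTT, with compound in 0.5% DMSO. IC50 came from inhibition curves.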

Chain of recombinant human HPK1 (Q92918 whole entry): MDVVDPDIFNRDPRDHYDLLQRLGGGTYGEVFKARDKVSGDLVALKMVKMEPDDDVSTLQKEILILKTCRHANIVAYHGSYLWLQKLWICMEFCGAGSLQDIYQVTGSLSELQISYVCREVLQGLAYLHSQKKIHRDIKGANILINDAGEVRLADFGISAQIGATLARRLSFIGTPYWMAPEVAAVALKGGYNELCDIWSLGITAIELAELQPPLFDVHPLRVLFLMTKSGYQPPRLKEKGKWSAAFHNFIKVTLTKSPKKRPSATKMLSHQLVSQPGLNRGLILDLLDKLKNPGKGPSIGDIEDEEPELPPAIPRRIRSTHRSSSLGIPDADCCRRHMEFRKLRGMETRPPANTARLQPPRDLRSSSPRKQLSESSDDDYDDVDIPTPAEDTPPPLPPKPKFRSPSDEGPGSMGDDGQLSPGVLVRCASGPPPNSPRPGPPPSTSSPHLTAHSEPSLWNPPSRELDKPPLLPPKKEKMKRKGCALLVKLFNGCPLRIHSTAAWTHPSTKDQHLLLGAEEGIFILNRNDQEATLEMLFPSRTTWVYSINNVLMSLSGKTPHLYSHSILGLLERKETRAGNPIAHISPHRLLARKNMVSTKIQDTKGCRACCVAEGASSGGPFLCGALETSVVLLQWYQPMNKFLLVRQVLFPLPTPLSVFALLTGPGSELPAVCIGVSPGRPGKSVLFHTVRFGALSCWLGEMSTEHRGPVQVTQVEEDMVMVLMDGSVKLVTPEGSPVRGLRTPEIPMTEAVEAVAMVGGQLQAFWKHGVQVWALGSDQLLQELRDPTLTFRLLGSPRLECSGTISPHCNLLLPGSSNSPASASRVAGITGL

SMILES | IC50 [µM]
O=C(Nc1nc2ccc(-c3cc(Cl)cc4[nH]ncc34)cc2s1)C1CC1 [Example 20, N-(6-(6-chloro-1H-indazol-4-yl)benzo[d]thiazol-2-yl)cyclopropanecarboxamide] | > 1
O=C(Nc1nc2ccc(-c3c(Cl)c(F)c(F)c4[nH]ncc34)cc2s1)[C@@H]1C[C@@H]1F [Example 126, (1S,2S)-N-(6-(5-chloro-6,7-difluoro-1H-indazol-4-yl)benzo[d]thiazol-2-yl)-2-fluorocyclopropane-1-carboxamide] | < 0.1
CNC(=O)N(C)c1c(F)c(Cl)c(-c2ccn3nc(NC(=O)[C@@H]4C[C@@H]4F)cc3c2)c2cn[nH]c12 [Example 664, (1S,2S)-N-(5-(5-chloro-7-(1,3-dimethylureido)-6-fluoro-1H-indazol-4-yl)pyrazolo[1,5-a]pyridin-2-yl)-2-fluorocyclopropane-1-carboxamide] | < 0.1
CCc1ccc2[nH]ncc2c1-c1ccn2nc(NC(=O)[C@@H]3C[C@@H]3F)cc2c1 [Example 452, (1S,2S)-N-(5-(5-ethyl-1H-indazol-4-yl)pyrazolo[1,5-a]pyridin-2-yl)-2-fluorocyclopropane-1-carboxamide] | < 0.1
CC(C)c1c(F)cc2[nH]ncc2c1-c1ccc2nc(NC(=O)C3CC3)cn2c1 [Example 246, N-(6-(6-fluoro-5-isopropyl-1H-indazol-4-yl)imidazo[1,2-a]pyridin-2-yl)cyclopropanecarboxamide] | < 0.1

More lines, now with the values ahead:

IC50 [µM] | SMILES
< 0.1 | CN(Cc1ccncc1)c1c(F)c(Cl)c(-c2ccc3nc(NC(=O)[C@@H]4C[C@@H]4F)cn3c2)c2cn[nH]c12 [Example 353, (1S,2S)-N-(6-(5-chloro-6-fluoro-7-(methyl(pyridin-4-ylmethyl)amino)-1H-indazol-4-yl)imidazo[1,2-a]pyridin-2-yl)-2-fluorocyclopropane-1-carboxamide]
< 0.1 | Cc1c(F)c(N(C)C)c2[nH]ncc2c1-c1ccc2nc(NC(=O)[C@@H]3C[C@@H]3F)cn2c1 [Example 273, (1S,2S)-N-(6-(7-(dimethylamino)-6-fluoro-5-methyl-1H-indazol-4-yl)imidazo[1,2-a]pyridin-2-yl)-2-fluorocyclopropane-1-carboxamide]
< 0.1 | O=C(O)NC1CN(c2c(F)c(Cl)c(-c3ccc4nc(NC(=O)[C@@H]5C[C@@H]5F)sc4c3)c3cn[nH]c23)C1 [Example 88, (1-(5-chloro-6-fluoro-4-(2-((1S,2S)-2-fluorocyclopropane-1-carboxamido)benzo[d]thiazol-6-yl)-1H-indazol-7-yl)azetidin-3-yl)carbamic acid]
< 0.1 | Cc1c(F)c(Br)c2[nH]ncc2c1-c1ccn2nc(NC(=O)[C@@H]3C[C@@H]3F)cc2c1 [Example 487, (1S,2S)-N-(5-(7-bromo-6-fluoro-5-methyl-1H-indazol-4-yl)pyrazolo[1,5-a]pyridin-2-yl)-2-fluorocyclopropane-1-carboxamide]
< 0.1 | CC1CN(c2c(F)c(Cl)c(-c3ccn4nc(NC(=O)[C@@H]5C[C@@H]5F)cc4c3)c3cn[nH]c23)C1 [Example 630, (1S,2S)-N-(5-(5-chloro-6-fluoro-7-(3-methylazetidin-1-yl)-1H-indazol-4-yl)pyrazolo[1,5-a]pyridin-2-yl)-2-fluorocyclopropane-1-carboxamide]
< 0.1 | CN(CC1CNC1)c1c(F)c(Cl)c(-c2ccc3nc(NC(=O)[C@@H]4C[C@@H]4F)sc3c2)c2cn[nH]c12 [Example 94, (1S,2S)-N-(6-(7-((azetidin-3-ylmethyl)(methyl)amino)-5-chloro-6-fluoro-1H-indazol-4-yl)benzo[d]thiazol-2-yl)-2-fluorocyclopropanecarboxamide]
< 0.1 | C#Cc1c(F)cc2[nH]ncc2c1-c1ccc2nc(NC(=O)[C@@H]3C[C@@H]3F)sc2c1 [Example 47, (1S,2S)-N-(6-(5-ethynyl-6-fluoro-1H-indazol-4-yl)benzo[d]thiazol-2-yl)-2-fluorocyclopropane-1-carboxamide]
